The values below come from patent US20150071918A1, “PEPTIDES FOR THE TREATMENT OF CANCER” (H. LEE MOFFITT CANCER CENTER AND RESEARCH INSTITUTE, INC., priority 2012, published 2015).

*1 amine or outer side, *2 acyl side, *3 side chain or, on linkers, in order; H or OH if unused. Where a SMILES comes first, the peptide text is derived from it. Bridges are numbered along the chain shown (N, C = ends). [ ]: non-standard residue; d: D form. The star is where a group is joined. dProlinol(O-CH2CO) = O=C(COC[C@H]1CCCN1[*:1])[*:2]; N(2-Aminoethyl)Gly = O=C(CN(CCN[*:3])[*:1])[*:2]; Nle = CCCC[C@H](N)C(=O)O; Ms = CS(=O)(=O)*

One test has as its system HL-60. The experiment in a line: HM-27 induced cell death in AML cell line, TO-PRO-3 staining and FACS. Format: cell-based. On the procedure:
(§1) FIGS. 42A-42B. […] U937, HL-60 and NB4 cells were treated with varying doses of HM-27 for 24 hr and cell death was determined as described in Materials and Methods. U937 and NB4 cells (150,000) exposed to HM-27 for 24 h were collected and analyzed for Caspase 3 activity using the FITC Active Caspase-3 Apoptosis Kit (BDPharmingen) as per manufacturer's instructions. All figures are a representative of three independent experiments done in triplicates.
(§2) Cells were collected after incubation with HM-27 and analyzed for markers of cell death indicative of either apoptosis, autophagy or necrosis. BM-MNCs were isolated from marrow aspirates of AML patients and normal individuals by Ficoll-Paque centrifugation and further enriched for CD34+ cells using immunomagnetic beads. Cell death was assessed by TO-PRO-3 staining followed by FACS analysis.

In another test the test system is NB4. The test is described as above. Format: cell-based. On the procedure:
as §1, §2

Another test concerns U937. Described as above. It counts as cell-based. The method, then: as §1, §2
The subject of another test is 5TGM1 cells. Briefly: 5TGM1 murine in vivo myeloma model, survival. The following applies: 5TGM1 model, dosing 3× weekly for three weeks. The arrangement: species or system C57BL/KaLwRij mice.
Test [1] has as its system U937 cells co-cultured with HS-5/GFP cells. Briefly: Co-culture bone marrow stroma (HS-5/GFP) model of drug resistance (CAM-DR), annexin V and FACS. Format: cell-based. The following applies: HS-5/GFP co-culture 24 hours prior to drug. On the procedure:
FIGS. 63A-63C. MTI-101 induces cell death in AML cell lines without succumbing to CAM-DR. HS-5/GFP cells were co-cultured with U937 cells for 24 hours prior to addition of 100 nM Mitoxantrone (FIG. 63A) or varying concentrations of MTI-101 (FIG. 63B). […] Cell death was measured in the GFP negative AML cells using annexin V to detect dead cells and FACS analysis. Cells cultured in suspension were used as a reference sample for drug sensitivity.

The subject of test [2] is lung cancer (LC) cell lines. Briefly: High-throughput CellTiter-Blue cell viability assay in lung cancer cell lines. Format: cell-based. The following applies: IC50 values shown only in figure. On the procedure: FIG. 35 is a graph showing IC-50 levels of 24 lung cancer (LC) cell lines treated with cyclized HYD1 (MTI-101). The activity of c-HYD1 was screened using a high-throughput CellTiter-Blue cell viability assay. Cell viability was assessed by the ability of the remaining viable cells to bioreduce resazurin to resorufin. Resazurin is dark blue in color and has little intrinsic fluorescence until it is reduced to resorufin (579 nm Ex/584 nm Em). The change in fluorescence was measured with a Synergy 4 microplate reader (Bio-Tek Instruments, Inc.). […] IC50s were determined as the concentration of drug required for 50% reduction in growth/viability. Shown is the mean IC50 value for each lung cancer cell line tested. Experiments were repeated 2-3 times.
FIG. 67. […] IC50 values were calculated from survival curves and the mean value is represented (n=2 independent experiments).
(In general: Resazurin is reduced to fluorescent resorufin, in cell work by metabolically active cells.)

Test [3] concerns Caspase 3 activity and total ATP levels in AML cell lines. Briefly: Markers of cell death in AML cell lines (Caspase 3 activity, ATP levels). Format: cell-based. The method, then: as §1
FIGS. 43A-43C. Cell death in AML cell lines by HM-27 (MTI-101) is via necrosis. Drug-treated cells (50 μM for U937 and 75 μM for HL-60) were lysed in 2% Triton X-100 in PBS with protease inhibitors (Roche) and incubated on ice for 45 min with mixing every 15 min. The supernatant (lysate) was collected after centrifugation for 20 sec at 10K rcf and 4° C. […] Twenty microliters (20 μL) of the lysate was mixed with 100 μL of the (rL/L) reagent from the kit and the luminescence was measured immediately. The luminescence was corrected by subtracting the value obtained from the blank and was checked against a standard. The luminescence was then multiplied by 50 to represent the total ATP levels from the 1.2×10^6 cells collected. […]
Cells were collected after incubation with HM-27 and analyzed for markers of cell death indicative of either apoptosis, autophagy or necrosis. […] Cell death was assessed by TO-PRO-3 staining followed by FACS analysis.

In test [4] the test system is phospho-ERK and CD44-associated PYK2 in NCI-H929 and U266 MM cells. The experiment in a line: Signal transduction in MM cells (pErk, CD44 immunoprecipitation probed for Pyk2, Src). It counts as cell-based. The settings on record: 5 uM H929 and 10 uM U226 cells. The method, then:
FIGS. 55A-55D. […] NCI-H929 and U266 were treated with 5 uM and 10 uM HM-27 respectively for various time points before whole cell lysis in RIPA buffer and probed for pErk and tErk (FIGS. 55A, 55B).
FIGS. 58A-58D. […] MTI-101 activates ERK and Pyk2. Member of these pathways can be utilized as biomarkers of response. In addition, agents that target survival pathways can be used in combination with MTI-101 (data supporting this in AML).
The inventors performed a total membrane binding assay with biotin conjugated HYD1 and NeutrAvidin beads on NCI-H929 and U266 MM cells. Samples were then loaded on an SDS-PAGE gel, trypsin digested, and analyzed by Liquid Chromatography-Mass Spectrometry/Mass Spectrometry (LC-MS/MS). The adhesion receptor CD44 was determined to be among the adhesion receptors that had the most peptide match hits and was confirmed as a valid hit via Western Blot analysis using biotin as a control for non-specific binding. In order to assess the binding between CD44 and HYD1, 96-well NeutrAvidin coated plates were preincubated with biotin-HYD1 before the addition of increasing concentrations of full length recombinant human CD44. For more quantitative binding affinity analysis we produced the human globular ectodomain of CD44 comprising of amino acids 20-178. […]

Method for 5TGM1 cells: FIG. 61B: 5TGM1 model: One million 5TGM1 cells were injected i.v. in C57BL/KaLwRij mice and allowed to engraft for 10 days prior to drug treatment. The dosing scheme for all drugs was 3× weekly for three weeks. Surrogate markers of morbidity include hind leg paralysis and/or lethargic behavior. All mice were euthanatized at day 100.
One million 5TGM1 cells were injected i.v. in C57BL/KaLwRij mice and allowed to engraft for 10 days prior to drug treatment. […] The dosing scheme for melphalan was twice (day 10 and day 14).

The term IC50 denotes the concentration needed to halve the response being measured. Higher therefore signals lower potency. Take `CCCC[C@@H]1NC(=O)CN(S(C)(=O)=O)CCNC(=O)[C@H](CCCCN)NC(=O)[C@H](CC(C)C)NC(=O)[C@H](CCCCN)NC(=O)[C@H](CC(C)C)NC(=O)[C@H](CCCCN)NC(=O)COC[C@H]2CCCN2C(=O)[C@H](Cc2c[nH]c3ccccc23)NC(=O)[C@H](C)NC(=O)[C@H](C(C)C)NC(=O)[C@H](C(C)C)NC1=O` [MTI-101] (Ms-[N(2-Aminoethyl)Gly][Nle]VVAW[dProlinol(O-CH2CO)]KLKLK; lactam 1-C): the IC50 with HL-60 was found to be 76.2 µM; in the test with NB4, 65 µM; with U937 it was 38.5 µM. Moreover, the “survival” value in the test on 5TGM1 cells is given as “increases survival in the 5TGM1 murine in vivo model”. Further, in test [1], the “sensitivity in co-culture versus suspension” value was “not resistant in the co-culture bone marrow stroma model of drug resistance”. For the same compound, the “growth of lung cancer cell lines” value in test [2] is on record as “inhibits the growth of several lung cancer cell lines”. In addition, the “ATP levels in AML cell lines” value in test [3] is recorded as “resulted in ATP depletion”. Further, the “Caspase 3 activation in AML cell lines” value in test [3] (24 h) was “did not cause activation of Caspase 3”. For the same compound, the “phospho-ERK and CD44-associated PYK2 in MM cells” value in test [4] was “induces transient phospho-ERK and CD44-associated PYK2 complex in NCI-H929 and U266 MM cells”.
